IC50 data for one molecule are collected here from PMC6438538, “Targeting ferroptosis: A novel therapeutic strategy for the treatment of mitochondrial disease-related epilepsy” (PLoS ONE, 2019).

The experiment deals with T1, 15-lipoxygenase-1 (15-LO) (Homo sapiens, UniProt P16050).
T1 construct: gene ALOX15; 6xHis-tagged human 15-LO
T1 sequence (P16050 2-662): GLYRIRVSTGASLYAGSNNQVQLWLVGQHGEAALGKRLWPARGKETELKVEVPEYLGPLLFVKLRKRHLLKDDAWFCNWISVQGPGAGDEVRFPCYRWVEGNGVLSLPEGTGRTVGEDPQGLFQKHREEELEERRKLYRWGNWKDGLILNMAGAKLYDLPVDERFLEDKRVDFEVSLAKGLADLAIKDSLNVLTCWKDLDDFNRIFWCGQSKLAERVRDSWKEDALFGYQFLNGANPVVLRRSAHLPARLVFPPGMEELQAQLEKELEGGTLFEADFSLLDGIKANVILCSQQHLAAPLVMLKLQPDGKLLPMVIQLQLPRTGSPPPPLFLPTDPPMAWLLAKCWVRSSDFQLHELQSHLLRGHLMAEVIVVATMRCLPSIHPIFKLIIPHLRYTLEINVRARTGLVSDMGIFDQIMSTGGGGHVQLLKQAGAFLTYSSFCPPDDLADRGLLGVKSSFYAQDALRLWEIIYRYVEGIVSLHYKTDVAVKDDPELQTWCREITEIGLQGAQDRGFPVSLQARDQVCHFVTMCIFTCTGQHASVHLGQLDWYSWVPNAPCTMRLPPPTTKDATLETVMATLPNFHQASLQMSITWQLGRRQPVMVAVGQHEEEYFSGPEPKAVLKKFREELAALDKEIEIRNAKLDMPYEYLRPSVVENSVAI
Kind of experiment: ferrous oxidation-xylenol orange (FOX) assay with purified human 15-LO and arachidonic acid. Type of experiment: biochemical.

The molecule `CC(C)=CCC/C(C)=C/CC/C(C)=C/CC[C@@](C)(O)CCc1c(C)c(O)c(C)c(C)c1O` [EPI-743-HQ, EPI-743 hydroquinone] yielded an IC50 of 4.4 µM.

The term IC50 denotes the concentration at which inhibition is half-maximal. A higher IC50 goes with lower potency.
